{
  "source": "patent US20250152616A1",
  "about": "“COMPOSITIONS FOR AND METHODS OF TREATING, PREVENTING, AND/OR MITIGATING PAIN” (Duke University, priority 2022, published 2025)",
  "key": {"fractured tibiae": {"tested_on": "fractured tibiae", "test": "MicroCT of fractured tibiae (fracture healing)", "type": "in vivo, mouse", "conditions": "21 days post-fracture", "method": "In all experiments, 12-week-old to 16-week-old C57BL/6J male mice (Jackson Laboratory, Bar Harbor, ME) and Lepr-cre; tdTomato reporter mice were used. The average mouse weight was 25 grams and mice were housed in groups of four to five, and kept on a 12-hr light-dark cycle with lights off at 1800 hr. All animals had ad libitum access to chow (PMI LabDiet 5001) and water. Fracture surgeries were performed as previously described (Zeng Y, et al. (2020) Adv Mater. 32:e1906022). Animals were anesthetized by isoflurane and injected with 1 mg/kg buprenorphine SR-LAB (ZooPharm, Laramie, WY). Each mouse was then placed in a supine position with the right tibia disinfected. After skin incision and reflection, proximal to the right knee, a 0.7-mm pin was inserted from the tibial plateau through the medullary cavity to stabilize the tibia, and a cut was made at the tibial midshaft to induce a transverse fracture. Bupivacaine (0.5%; Hospira, Lake Forest, IL) at ˜1 mg/kg body weight was applied at the surgical site following wound closure using 2 reflex clips (5 mm). For animals treated with control and adenosine-loaded macroporous hydrogels, macroporous hydrogels measuring approximately 5 mm (length)×3 mm (width)×1 mm (thick) containing either 1.05±0.1 mg adenosine (ADO) or no adenosine (CTL) were implanted adjacent to the fractures immediately. […] The animals were treated with the macroporous hydrogels with or without adenosine immediately following the fracture. In the cohorts for weight bearing and open field activity measurements, 1 animal from the control group and 1 animal from the treatment group were euthanized due to shift of the inserted pin following fracture.\nTibiae were collected, fixed in 4% PFA at 4° C. for 1 day, and rinsed with PBS. The fixed samples were placed in 50-mL centrifuge tubes with styrofoam spacers and loaded into a microcomputed tomography (microCT) scanner (vivaCT 80, Scanco Medical, Wayne, PA). The samples were scanned at 55 keV at a pixel resolution of 10.4 μm. The reconstruction of the images was performed using microCT Evaluation Program V6.6 (Scanco Medical), followed by generation of radiographs and 3D models using microCT Ray V4.0 (Scanco Medical). Total volume (TV), bone volume (BV) per total volume (TV) (% BV/TV), and bone mineral density (BMD) was quantified using the phantom as a reference based on 100 contiguous slices."}, "[1]": {"tested_on": "bone marrow mesenchymal stromal cells (BM-MSCs)", "test": "RT-qPCR of osteogenic genes in bone marrow MSCs", "type": "cell-based, mouse", "conditions": "adenosine 30 μg/mL, 14 days, absence of osteogenic induction medium", "method": "MSCs were isolated as previously described with some modifications (Shih Y B, et al. (2019) Sci Adv. 5:eaax1387). Briefly, the femurs, tibiae, vertebrae of mice were harvested, crushed with pestle and mortar in harvest buffer (1% v/v FBS in PBS) to release bone marrow (BM) tissue, filtered through a 40-μm cell strainer, and centrifuged at 200 rcf. Cells were seeded in a 24-well plate at a cell density of 1 million cells/cm^2 in growth media (GM) containing α-MEM, FBS (10% v/v, ThermoFisher, Cat #16000044), penicillin/streptomycin (10000 U/mL; 1% v/v) and cultured in humidified incubator (37° C., 5% CO2). The medium was replaced after 3 days and further cultured for 6 days before passage. For passaging, cells were incubated in 0.25% trypsin-EDTA for 2 min at 37° C., detached with a cell scraper, neutralized by using GM, centrifuged, and sub-cultured at a density of 8000 cells/cm^2. All experiments were performed between 1-2 passage. Osteogenic medium (OM) was prepared by supplementing GM with 10 mM β-glycerophosphate (MilliporeSigma, Cat #G9422), 50 μM ascorbic acid-2-phosphate (MilliporeSigma, Cat #A8960), and 100 nM dexamethasone (MilliporeSigma, Cat #D4902).\nCells, DRG, or bone/marrow tissues were analyzed for gene expression by quantitative real-time polymerase chain reaction (RT-qPCR). Nucleic acids were extracted with TRIzol, phase-separated with chloroform, and precipitated in isopropanol. […] Quantitative PCR was performed with iTaq Universal SYBR green reagent (Bio-Rad, Cat #1725124) with denaturation at 95° C. for 30 sec for one cycle, and amplification (denaturation+annealing/extension) at 95° C. for 5 sec and 60° C. for 30 sec for 40 cycles on a polymerase chain reaction (PCR) cycler (Bio-Rad, CFX96 Touch). […]\nThe expression level of each target gene was normalized to the housekeeping gene and to their respective controls and presented as fold change expressed as 2^−ΔΔCt values. […]"}},
  "data": [
    {"smiles": "Nc1ncnc2c1ncn2[C@@H]1O[C@H](CO)[C@@H](O)[C@H]1O", "note": "[adenosine]", "values": [
      {"measurement": "callus size (microCT)", "setting": "fractured tibiae", "result": "smaller calluses"},
      {"measurement": "cortical bone bridging (microCT)", "setting": "fractured tibiae", "result": "improved bridging of cortical bone with less trabecular bone"},
      {"measurement": "total volume (TV) of regenerating calluses vs control", "setting": "fractured tibiae", "result": "lower"},
      {"measurement": "fracture healing (microCT images and radiographs)", "setting": "fractured tibiae; local delivery", "result": "accelerated"},
      {"measurement": "Ibsp gene expression", "setting": "[1]", "result": "upregulated"},
      {"measurement": "Runx2 gene expression", "setting": "[1]", "result": "upregulated"},
      {"measurement": "Sp7 gene expression", "setting": "[1]", "result": "upregulated"}
    ]}
  ]
}
